The target of one test is T1, human androgen receptor (Homo sapiens, UniProt P10275).
T1 construct: expressed in transfected cells; host or cells: HEK293
T1 sequence (P10275 1-920): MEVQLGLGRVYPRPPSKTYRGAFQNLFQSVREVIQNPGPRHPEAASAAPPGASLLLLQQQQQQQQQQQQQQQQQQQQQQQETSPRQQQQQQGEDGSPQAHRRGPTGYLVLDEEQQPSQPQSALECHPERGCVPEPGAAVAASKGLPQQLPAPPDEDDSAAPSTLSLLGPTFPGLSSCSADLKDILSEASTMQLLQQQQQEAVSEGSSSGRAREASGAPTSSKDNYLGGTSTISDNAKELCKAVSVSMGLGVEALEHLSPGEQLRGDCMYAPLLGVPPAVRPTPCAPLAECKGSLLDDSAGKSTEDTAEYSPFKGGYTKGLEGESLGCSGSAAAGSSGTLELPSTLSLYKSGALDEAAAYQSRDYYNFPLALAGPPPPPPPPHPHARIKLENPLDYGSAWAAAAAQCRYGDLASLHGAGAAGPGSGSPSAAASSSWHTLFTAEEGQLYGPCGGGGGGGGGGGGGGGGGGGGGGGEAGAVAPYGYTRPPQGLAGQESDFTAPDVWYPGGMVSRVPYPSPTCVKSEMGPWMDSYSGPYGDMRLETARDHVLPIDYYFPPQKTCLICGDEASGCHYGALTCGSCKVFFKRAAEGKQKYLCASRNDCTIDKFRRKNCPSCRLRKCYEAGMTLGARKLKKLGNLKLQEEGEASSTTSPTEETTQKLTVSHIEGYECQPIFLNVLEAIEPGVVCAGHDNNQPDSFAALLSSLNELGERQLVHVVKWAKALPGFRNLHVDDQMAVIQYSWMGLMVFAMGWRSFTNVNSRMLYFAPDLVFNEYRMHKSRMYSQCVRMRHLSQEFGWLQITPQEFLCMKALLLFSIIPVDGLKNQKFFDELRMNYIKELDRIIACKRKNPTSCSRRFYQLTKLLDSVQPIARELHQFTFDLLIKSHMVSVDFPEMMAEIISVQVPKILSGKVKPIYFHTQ
The experiment in a line: Reporter assay of an androgen receptor responsive sequence (luciferase, transiently transfected HEK293 cells). It is filed as cell-based. Conditions: 24 hours incubation, relative to activity of 100 nM DHT, read-out: AR transcriptive activity (pEC50) (converted). The method, boiled down:
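HEK293 cells transiently transfected for 3 h with ARE-firefly luciferase, full-length human AR and TK-Renilla plasmids, then exposed to compound for 24 h at 37 °C in 5% charcoal-treated FBS/DMEM. Dual-Glo luminescence read; pEC50 from 4-parameter fit relative to 100 nM DHT.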

The target in test [1] is T2, androgen receptor (AR-LBD) (Rattus norvegicus, UniProt P15207).
T2 construct: 5 μL of 2×AR-LBD/Fluoromone AL Red Complex contained in the kit; purchased Invitrogen
T2 sequence (P15207 651-882 limits assumed): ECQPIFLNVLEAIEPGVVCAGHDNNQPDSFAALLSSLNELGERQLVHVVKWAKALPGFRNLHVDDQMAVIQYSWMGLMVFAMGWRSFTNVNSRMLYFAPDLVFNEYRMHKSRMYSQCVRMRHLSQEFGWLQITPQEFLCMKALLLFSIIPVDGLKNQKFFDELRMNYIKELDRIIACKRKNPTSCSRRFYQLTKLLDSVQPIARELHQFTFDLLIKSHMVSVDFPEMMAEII
In words: Evaluation of androgen receptor affinity (PolarScreen Androgen Receptor Competitor Assay Kit, Red; fluorescence polarization). Conditions: 22° C. for 5 hours, relative to binding rate of 1 μM DHT, read-out: AR affinity (pEC50) (converted). The method, boiled down: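 Fluorescence polarization competition assay: compound was incubated in duplicate with the kit's AR-LBD/Fluoromone AL Red complex for 5 h at 22 °C. Binding was expressed relative to 1 μM DHT, and pEC50 was derived by 4-parameter fit.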
(In general: Fluorescence polarisation rises when a labelled molecule tumbles more slowly, as on binding a larger partner.)

With `Cc1sc(N(Cc2cccc(Cl)c2F)c2ccc(C#N)cc2)nc1C(=O)NS(C)(=O)=O` [Compound 107, 2-[N-[(3-chloro-2-fluoro-phenyl)methyl]-4-cyano-anilino]-5-methyl-N-methylsulfonyl-thiazole-4-carboxamide], the EC50 at human androgen receptor was 31.6 nM; in test [1] it was 50.1 nM.

Take `Cc1sc(N(Cc2cc(F)ccc2Cl)c2ccc(C#N)cc2)nc1C(=O)NS(C)(=O)=O` [Compound 108, 2-[N-[(2-chloro-5-fluoro-phenyl)methyl]-4-cyano-anilino]-5-methyl-N-methylsulfonyl-thiazole-4-carboxamide]: the EC50 was 501 nM on human androgen receptor and 100 nM in test [1].

On to `Cc1sc(N(Cc2cc(F)cc(F)c2F)c2ccc(C#N)cc2)nc1C(=O)NS(C)(=O)=O` [Compound 109, 2-[4-cyano-N-[(2,3,5-trifluorophenyl)methyl]anilino]-5-methyl-N-methylsulfonyl-thiazole-4-carboxamide], for which the EC50 on human androgen receptor is 200 nM; in test [1], 100 nM.

Consider `Cc1sc(N(Cc2cc(F)c(F)cc2F)c2ccc(C#N)cc2)nc1C(=O)NS(C)(=O)=O` [Compound 110, 2-[4-cyano-N-[(2,4,5-trifluorophenyl)methyl]anilino]-5-methyl-N-methylsulfonyl-thiazole-4-carboxamide], for which the EC50 is 126 nM at human androgen receptor and 63.1 nM in test [1].

Turning to `COc1c(F)ccc(CN(c2ccc(C#N)cc2)c2nc(C(=O)NS(C)(=O)=O)c(C)s2)c1F` [Compound 111, 2-[4-cyano-N-[(2,4-difluoro-3-methoxy-phenyl)methyl]anilino]-5-methyl-N-methylsulfonyl-thiazole-4-carboxamide], the results for the EC50 (at human androgen receptor; in test [1]) were 63.1 nM and 50.1 nM, respectively.

In the case of `COc1ccc(CN(c2ccc(C#N)cc2)c2nc(C(=O)NS(C)(=O)=O)c(C)s2)c(F)c1F` [Compound 112, 2-[4-cyano-N-[(2,3-difluoro-4-methoxy-phenyl)methyl]anilino]-5-methyl-N-methylsulfonyl-thiazole-4-carboxamide], the results for the EC50 (at human androgen receptor; in test [1]) were 79.4 nM and 31.6 nM, respectively.

As for `Cc1sc(N(Cc2ccc(SC(F)(F)F)cc2)c2ccc(C#N)cc2)nc1C(=O)NS(C)(=O)=O` [Compound 113, 2-[4-cyano-N-[[4-(trifluoromethylsulfanyl)phenyl]methyl]anilino]-5-methyl-N-methylsulfonyl-thiazole-4-carboxamide], the results for the EC50 (on human androgen receptor; in test [1]) were 158 nM and 25.1 nM, respectively.

`Cc1sc(N(Cc2ccc3nsnc3c2)c2ccc(C#N)cc2)nc1C(=O)NS(C)(=O)=O` [Compound 114, 2-[N-(2,1,3-benzothiadiazole-5-ylmethyl)-4-cyano-anilino]-5-methyl-N-methylsulfonyl-thiazole-4-carboxamide]: the EC50 at human androgen receptor was 158 nM; in test [1] it was 126 nM.

In the case of `Cc1ccc(CN(c2ccc(C#N)cc2)c2nc(C(=O)NS(C)(=O)=O)c(C)s2)cc1F` [Compound 115, 2-[4-cyano-N-[(3-fluoro-4-methyl-phenyl)methyl]anilino]-5-methyl-N-methylsulfonyl-thiazole-4-carboxamide], the EC50 (at human androgen receptor; in test [1]) was 31.6 nM throughout.

On to `Cc1sc(N(Cc2ccc(Cl)c(F)c2)c2ccc(C#N)cc2)nc1C(=O)NS(C)(=O)=O` [Compound 116, 2-[N-[(4-chloro-3-fluoro-phenyl)methyl]-4-cyano-anilino]-5-methyl-N-methylsulfonyl-thiazole-4-carboxamide], for which the EC50 is 25.1 nM on human androgen receptor and 31.6 nM in test [1].

Consider `Cc1sc(N(Cc2ccc(F)c(Cl)c2)c2ccc(C#N)cc2)nc1C(=O)NS(C)(=O)=O` [Compound 117, 2-[N-[(3-chloro-4-fluoro-phenyl)methyl]-4-cyano-anilino]-5-methyl-N-methylsulfonyl-thiazole-4-carboxamide], for which the figures for the EC50 (on human androgen receptor; in test [1]) were 63.1 nM and 25.1 nM, respectively.

Values taken from US10689354B2, “Aminoazole derivative” (Teijin Pharma Limited, priority 2015, dated 2020).
